For one test, the system named is PI3K. The experiment in a line: IGF-1-stimulated phospho-AKT Ser473 in MCF7 cells, Western blot. It counts as cell-based, Human. The note with it: up to 10 μM, 50 ng/mL IGF-1, 30 min. As for the experimental part: (§1) Exponentially growing MCF7 cells were exposed to a range of concentrations of NU5455 and NU7441 (0.03–10 μM) for 1 hour. To assess the ability of NU5455 and NU7441 to inhibit autophosphorylation of DNA-PKcs at Ser2056, cells were treated with 10 Gy irradiation and incubated for 30 minutes. Alternatively, to investigate the effects of NU5455 and NU7441 against PI3K-dependent phosphorylation of AKT at Ser473, cells were treated with 50 ng/mL insulin-like growth factor-1 (IGF-1; Invitrogen) for 30 minutes. Cell lysates were prepared for the detection of p–DNA-PKcs Ser2056 and total DNA-PKcs, or p–AKT Ser473 and total AKT, respectively, using Western blotting. […]
(§2) Protein lysates were quantified using the Pierce BCA Protein Assay (ThermoFisher). […]
(§3) Membranes were then washed in TBST and incubated with HRP-conjugated goat anti-mouse or anti-rabbit antibodies (P0447 and P0448 respectively, Dako) in 5% (w/v) milk/TBST at room temperature for 1-2 hours. Conjugates were detected using Clarity Western ECL Substrate (BioRad) and chemiluminescence imaged using the Fuji LAS-3000 Luminescent Image Analyzer System (Fujifilm). […]
(§4) Alternatively, basal pAKT Ser473 levels were subtracted from all other pAKT bands, and pAKT band intensity calculated relative to total AKT expression and given as a percentage relative to IGF-1 stimulated, DMSO-treated cells. […]
(In western blotting, separated proteins are transferred to a membrane and probed.)

For a further test, the target named is DNA-PK (Homo sapiens, UniProt P78527). Description: radiation-induced phospho-DNA-PK Ser2056 in MCF7 cells, Western blot. It counts as cell-based. Details: endogenous in cells; host or cells: MCF7. The note with it: 1 h pretreatment, 30 min after 10 Gy IR, read-out: IC50, radiation-induced activation of DNA-PK (phospho–DNA-PK Ser2056). The procedure: as §1, §2, §3, §4

The source of these data is paper PMC6934184, “Selective DNA-PKcs inhibition extends the therapeutic index of localized radiotherapy and chemotherapy” (The Journal of Clinical Investigation, 2019).

For orientation: IC50 means the concentration needed to halve the response being measured. For the compound `CN(C(=O)CN1CCOCC1)c1ccc2sc3c(-c4cccc5c(=O)cc(N6CC7CCC(C6)O7)oc45)cccc3c2c1` [NU5455], the “inhibition of IGF-stimulated activation of AKT” value in the test with PI3K is given as “did not inhibit”. Also, the concentration for half-maximal inhibition (IC50) on DNA-PK came out at 168 nM.
